Reference: ChEMBL document CHEMBL4184208, “Theoretical research in structure characteristics of different inhibitors and differences of binding modes with CBP bromodomain” (Bioorg Med Chem, 2018)

Molecular target: CREB-binding protein/Histone acetyltransferase p300 (Homo sapiens, UniProt Q09472+Q92793)
Experiment: Inhibition of human His-FLAG tagged CBP/EP300 (1082 to 1197 residues) using H4-TetraAc-biotin peptide as substrate after 90 mins by AlphaLISA method
Assay type: protein assay

C[C@@H]1CC(=O)Nc2ccccc2N1
IC50: 14 µM

C[C@@H]1CC(=O)Nc2cccc(-c3cnn(C(C)(C)C)c3)c2N1
IC50: 0.47 µM
